A word on the pIC50: it is −log10 of the IC50, conventionally taken in molar units. A lower pIC50 goes with a high IC50.

The target in this assay is Hematopoietic prostaglandin D synthase (Homo sapiens, UniProt O60760). The assay is described as follows: In Vitro GST Activity Assay. As to conditions: pH 7.2; 22 °C. As for the experimental part:
The PGDS glutathione-S-transferase (GST) activity was measured by using MonoChloroBimane (MCB) as a chromogenic substrate. The assay was run at 384-well format in reaction buffer containing enzyme and test compound. Then MCB and GSH were added for further incubation. After reaction was stopped, the fluorescence was measured (excitation: 390 nm; emission: 478 nm).

SMILES strings stand for the structures. pIC50: −log10 of the molar value.

Chain of Hematopoietic prostaglandin D synthase (O60760 whole entry): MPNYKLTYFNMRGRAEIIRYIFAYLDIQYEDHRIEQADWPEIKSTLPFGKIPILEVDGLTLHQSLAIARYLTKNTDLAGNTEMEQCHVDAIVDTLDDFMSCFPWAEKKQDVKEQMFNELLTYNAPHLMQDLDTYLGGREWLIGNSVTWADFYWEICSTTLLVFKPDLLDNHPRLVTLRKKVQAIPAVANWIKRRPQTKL

`COc1ccc(-c2cc3c(nn2)-c2ccccc2C3=O)cc1` showed a negative-log IC50 (pIC50) of 5.42. Under `CCOC(=O)c1cc(OC)c(-c2ccccc2)nn1` [ethyl 5-methoxy-6-phenylpyridazine-3-carboxylate] stands 4.35.
